In general, Kd refers to the constant that tells how readily two partners part at equilibrium. The IC50 is the concentration needed to halve the response being measured. For orientation: Ki means a measure of affinity in units of concentration, obtained from inhibition or displacement.

Like-named read-outs stand apart in the source and are kept apart here.

These results are taken from paper PMC9490041, “Determinants of affinity, specificity, and phase separation in a supramodule from Post-synaptic density protein 95” (iScience, 2022).

In experiment [1] the target is PSG G322A G335A (PSD-95). Description: FP saturation binding of FITC-15 AA CRIPT probe. The following applies: read-out: Kd probe, 5 nM FITC-15 AA CRIPT, room temperature.
Experiment [2] addresses PSG (PSD-95). The experiment in a line: FP saturation binding of FITC-15 AA CRIPT probe. The following applies: read-out: Kd probe, 5 nM FITC-15 AA CRIPT, room temperature, PSG WT.
In experiment [3] the target is PSG G322A G335A (PSD-95). Description: FP displacement (competition) of FITC-15 AA CRIPT by library peptide, IC50 and Ki.
The target in another experiment is PSG G335A (PSD-95). The description is as above. The following applies: FP displacement of FITC-15 AA CRIPT probe by acetylated PSD library peptide.
Experiment [4] concerns the target PSG (PSD-95). The description is as above.
For a further experiment, the target named is PSG F325A (PSD-95). The description is as above. The following applies: read-out: IC50 (µM), PSG F325A; FP displacement of FITC-15 AA CRIPT probe by acetylated PSD library peptide.
The next experiment addresses PSG G322A (PSD-95). Described as above. The following applies: FP displacement of FITC-15 AA CRIPT probe by acetylated PSD library peptide.
The test system of the next experiment is PDZ1-2 (PSD-95). The experiment in a line: Isothermal titration calorimetry. In kind it is binding. The following applies: ITC.

As to `CC(C)C[C@H](NC(=O)[C@@H](NC(=O)[C@H](CCCCN)NC(=O)[C@H](CCCCN)NC(=O)[C@H](Cc1ccc(O)cc1)NC(=S)Nc1ccc2c(c1)C(=O)OC21c2ccc(O)cc2Oc2cc(O)ccc21)C(C)C)C(=O)N[C@@H](CC(=O)O)C(=O)N[C@H](C(=O)N[C@@H](CCCCN)C(=O)N[C@@H](CC(N)=O)C(=O)N[C@@H](Cc1ccc(O)cc1)C(=O)N[C@@H](CCCCN)C(=O)N[C@@H](CCC(N)=O)C(=O)N[C@H](C(=O)N[C@@H](CO)C(=O)N[C@H](C(=O)O)C(C)C)[C@@H](C)O)[C@@H](C)O` [FITC-15 AA CRIPT], the Kd on PSG G322A G335A (PSD-95) [1] worked out at 160 ± 20 nM; at PSG (PSD-95) [2] it was 2200 ± 220 nM.
With `CC(=O)N[C@@H](Cc1ccc(O)cc1)C(=O)N[C@@H](CCC(N)=O)C(=O)N[C@@H](CCCNC(=N)N)C(=O)NCC(=O)N[C@@H](CO)C(=O)N[C@@H](Cc1ccccc1)C(=O)N1CCC[C@H]1C(=O)N1CCC[C@H]1C(=O)N[C@@H](Cc1c[nH]c2ccccc12)C(=O)N[C@H](C(=O)N[C@@H](CCC(N)=O)C(=O)N[C@@H](CCC(N)=O)C(=O)N[C@H](C(=O)N[C@@H](CCCNC(=N)N)C(=O)N[C@H](C(=O)O)C(C)C)[C@@H](C)O)C(C)C` [SYNGAP⍺1], the IC50 was 0.922 µM on PSG G322A G335A (PSD-95) [3] (read-out: IC50 (µM), PSG G322A G335A, FP displacement of FITC-15 AA CRIPT probe by acetylated PSD library peptide (P-13 to P0 plus extra N-terminal Y)); 1.12 µM at PSG G335A (PSD-95) (read-out: IC50 (µM), PSG G335A); 4.24 µM at PSG (PSD-95) [4] (read-out: IC50 (µM), PSG, FP displacement of FITC-15 AA CRIPT probe by acetylated PSD library peptide); 8 µM at PSG F325A (PSD-95); 1.31 µM at PSG G322A (PSD-95) (read-out: IC50 (µM), PSG G322A). Besides, the Ki on PSG G322A G335A (PSD-95) [3] (read-out: Ki (µM), PSG G322A G335A, FP displacement of FITC-15 AA CRIPT probe by acetylated PSD library peptide) is 0.243 µM; on PSG G335A (PSD-95) (read-out: Ki (µM), PSG G335A), 0.24 µM; at PSG (PSD-95) [4] (FP displacement of 5 nM FITC-15 AA CRIPT by non-labeled acetylated peptide, room temperature, Ki from IC50, technical triplicates, PSG) it was under 75 µM; at PSG (PSD-95) [4] (read-out: Ki (µM), PSG, FP displacement of FITC-15 AA CRIPT probe by acetylated PSD library peptide), 0.913 µM; at PSG G322A (PSD-95) (read-out: Ki (µM), PSG G322A), 0.4 µM.
For the molecule “FL CC ADGRB1: expressed full-length coiled-coil C-terminal part of ADGRB1, residues 1,471–1,584”, the “Higher affinity for PDZ1-2 in comparison with PSG WT” value with PDZ1-2 (PSD-95) turned out to be 3 fold.
